This is an account of results in the supplement of paper PMC5908809.

Common to all, as to assay: relative IC50 (inflection point of fitted viability curve, relative to fitted max inhibition); higher = less sensitive
Common to all, as to settings: 72 h

One experiment deals with IMC-1 (IL-2 20 ng/mL). How it is done: (§1)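 Drug sensitivity and resistance testing: 5 concentrations over a 10,000-fold range, 72 h at 37 °C, viability by CellTiter-Glo normalised to DMSO and benzethonium chloride controls. IC50 is the inflection point of a logistic fit (min fixed at 0, max fitted), so it is relative to the fitted maximal inhibition. Kept only where fitted max inhibition is at least 50%.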

For the next experiment, the system named is KAI3 (IL-2 2.5 ng/mL). The procedure: as §1
A further experiment has as its system KHYG-1 (IL-2 2.5 ng/mL). The procedure: as §1
The subject of another experiment is NK-92 (IL-2 2.5 ng/mL). How it is done: as §1
Another experiment deals with NK-YS (IL-2 2.5 ng/mL). How it is done: as §1
Another experiment relates to NKL (IL-2 2.5 ng/mL). How it is done: as §1
For the next experiment, the system named is YT (IL-2 2.5 ng/mL). How it is done: as §1
The test system of experiment [1] is normal primary NK cells, pool 2 (3 donors) (IL-2 2.5 ng/mL). The procedure: as §1
The next experiment relates to DERL-7 (IL-2 2.5 ng/mL). How it is done:
as §1

In a further experiment the test system is SNK-6 (IL-2 2.5 ng/mL). How it is done:
as §1

For experiment [2], the system named is normal primary NK cells, pool 1 (3 donors) (IL-2 2.5 ng/mL). How it is done: as §1
In experiment [3] the test system is normal primary NK cells, pool 1 (3 donors), resting (IL-2 0 ng/mL). The procedure:
as §1

For experiment [4], the system named is normal primary NK cells, pool 3 (3 donors) (IL-2 2.5 ng/mL). How it is done:
as §1

A word on the relative IC50: it is the concentration at the midpoint between the plateaus of the fitted inhibition curve. `Clc1ccc(C(c2ccccc2Cl)C(Cl)Cl)cc1` (stereo not drawn) [Mitotane]: the “relative IC50” value with IMC-1 (IL-2 20 ng/mL), in the experiment on KAI3 (IL-2 2.5 ng/mL), in the experiment on KHYG-1 (IL-2 2.5 ng/mL), in the experiment with NK-92 (IL-2 2.5 ng/mL), with NK-YS (IL-2 2.5 ng/mL) and with NKL (IL-2 2.5 ng/mL) was greater than 10000 nM each time. The “relative IC50” value (with YT (IL-2 2.5 ng/mL); in [1]) was greater than 10000 nM in each case.
`Cc1sc2c(c1C)C(c1ccc(Cl)cc1)=N[C@@H](CC(=O)OC(C)(C)C)c1nnc(C)n1-2` [(+)JQ1]: the “relative IC50” value in the experiment on DERL-7 (IL-2 2.5 ng/mL) amounted to 76.9 nM; in the experiment with KAI3 (IL-2 2.5 ng/mL), 362 nM; in the experiment on KHYG-1 (IL-2 2.5 ng/mL) it was 165 nM; in the experiment on NK-YS (IL-2 2.5 ng/mL), 231 nM; with NKL (IL-2 2.5 ng/mL), 113 nM; in the experiment with SNK-6 (IL-2 2.5 ng/mL) it was 215 nM. For the same compound, the “relative IC50” value in the experiment with YT (IL-2 2.5 ng/mL) was determined as 238 nM; in [2] it was 546 nM; in experiment [3], 1080 nM.
`Oc1ccc2c(c1)CC[C@H](c1ccccc1)[C@@H]2c1ccc(OCCN2CCCC2)cc1` [Lasofoxifene]: the “relative IC50” value (with NKL (IL-2 2.5 ng/mL); in [1]; in experiment [4]) was greater than 1000 nM throughout.
For the compound `CC[C@@H]1C(=O)N(C)c2cnc(Nc3ccc(C(=O)NC4CCN(C)CC4)cc3OC)nc2N1C1CCCC1` [BI 2536], the “relative IC50” value in the experiment on DERL-7 (IL-2 2.5 ng/mL) came out at 8.62 nM; with IMC-1 (IL-2 20 ng/mL) it was 14.8 nM; with KAI3 (IL-2 2.5 ng/mL) it was 8.37 nM; in the experiment on KHYG-1 (IL-2 2.5 ng/mL) it was 22.1 nM; in the experiment with NK-92 (IL-2 2.5 ng/mL) it was 11.4 nM; in the experiment with NK-YS (IL-2 2.5 ng/mL), 13.5 nM. For the same compound, the “relative IC50” value in the experiment with NKL (IL-2 2.5 ng/mL) was 9.81 nM; with SNK-6 (IL-2 2.5 ng/mL), 4.57 nM; in the experiment with YT (IL-2 2.5 ng/mL), 26.3 nM; in experiment [1] it was 218 nM.
In the case of `Cn1cc(-c2ccc3nnc(C(F)(F)c4ccc5ncccc5c4)n3n2)cn1`, the “relative IC50” value in experiment [3] is greater than 10000 nM.
Turning to `C[C@]1(c2nc3c(C(N)=O)cccc3[nH]2)CCCN1` [Veliparib], the “relative IC50” value in experiment [2] stood at 2020 nM; in experiment [3] it was 3590 nM.
`COCC(=O)NC/C=C/c1ccc2ncnc(Nc3ccc(Oc4ccc(C)nc4)c(C)c3)c2c1`: the “relative IC50” value with IMC-1 (IL-2 20 ng/mL) was 2920 nM; in the experiment on KAI3 (IL-2 2.5 ng/mL) it was 1870 nM; in the experiment with NK-92 (IL-2 2.5 ng/mL) it was 1470 nM; in the experiment with NKL (IL-2 2.5 ng/mL) it was 2070 nM; in the experiment on SNK-6 (IL-2 2.5 ng/mL) it was 3270 nM; in [3], 834 nM.
As to `C=C1C[C@@H]2[C@H](CC[C@]3(C)C(=O)CC[C@@H]23)[C@@]2(C)C=CC(=O)C=C12` [Exemestane], in [3], the “relative IC50” value was 3290 nM.
As for `N#Cc1ccc(COC[C@H]2O[C@@H](n3c(NCc4ccc(Cl)c(Cl)c4)nc4c(N)ncnc43)[C@H](O)[C@@H]2O)cc1`, the “relative IC50” value with IMC-1 (IL-2 20 ng/mL) was 3860 nM; with KHYG-1 (IL-2 2.5 ng/mL), 1810 nM; in the experiment with NK-YS (IL-2 2.5 ng/mL), 1310 nM; with SNK-6 (IL-2 2.5 ng/mL) it was 1150 nM; with YT (IL-2 2.5 ng/mL), 1710 nM; in experiment [4], greater than 10000 nM.
For `O=C(Nc1cccnc1)N1CCC(Cc2cccc(Oc3ccc(C(F)(F)F)cn3)c2)CC1` [PF-3845], the “relative IC50” value was 2560 nM in the experiment on KHYG-1 (IL-2 2.5 ng/mL); 2040 nM in the experiment on NK-YS (IL-2 2.5 ng/mL); 1560 nM in the experiment on NKL (IL-2 2.5 ng/mL); 2860 nM in [2]; 3480 nM in [3].
Regarding `COc1cc2/c(=N/c3ccc(Br)cc3F)nc[nH]c2cc1OCC1CCN(C)CC1` [Vandetanib], in experiment [4], the “relative IC50” value was greater than 1000 nM.
As for `O=C(Nc1cccc(Nc2ncc(Br)c(NCCc3cnc[nH]3)n2)c1)N1CCCC1` [BX-912], the “relative IC50” value was 1060 nM with DERL-7 (IL-2 2.5 ng/mL); 735 nM in the experiment with IMC-1 (IL-2 20 ng/mL); 474 nM with KAI3 (IL-2 2.5 ng/mL); 507 nM in the experiment on KHYG-1 (IL-2 2.5 ng/mL); 1170 nM in the experiment with NK-92 (IL-2 2.5 ng/mL); 1850 nM with NK-YS (IL-2 2.5 ng/mL). Besides, the “relative IC50” value with NKL (IL-2 2.5 ng/mL) came out at 1010 nM; in the experiment with SNK-6 (IL-2 2.5 ng/mL), 482 nM; in the experiment on YT (IL-2 2.5 ng/mL), 1510 nM; in experiment [2] it was 1270 nM; in [1] it was 1170 nM; in experiment [4], 1420 nM.
With `CC[C@@]1(O)C(=O)OCc2c1cc1n(c2=O)Cc2cc3ccccc3nc2-1` [Camptothecin], the “relative IC50” value in the experiment on DERL-7 (IL-2 2.5 ng/mL) came out at 9.21 nM; in the experiment with IMC-1 (IL-2 20 ng/mL) it was 14.2 nM; in the experiment on KAI3 (IL-2 2.5 ng/mL), 0.88 nM; in the experiment with KHYG-1 (IL-2 2.5 ng/mL), 4.95 nM; in the experiment on NK-92 (IL-2 2.5 ng/mL), 5.92 nM; in the experiment with NK-YS (IL-2 2.5 ng/mL), 3.56 nM. The “relative IC50” value with NKL (IL-2 2.5 ng/mL) is 1.47 nM; with SNK-6 (IL-2 2.5 ng/mL), 3.1 nM; in the experiment on YT (IL-2 2.5 ng/mL), 18.4 nM; in [1] it was 547 nM; in experiment [4] it was 278 nM.
For the compound `Cc1cnc(Nc2ccc(OCCN3CCCC3)cc2)nc1Nc1cccc(S(=O)(=O)NC(C)(C)C)c1` [Fedratinib], the “relative IC50” value in the experiment with IMC-1 (IL-2 20 ng/mL) stood at 929 nM; in [1], 462 nM; in experiment [4], 479 nM.
